Legend:
[1] = Inhibition of quorum sensing system in Pseudomonas aeruginosa PAO1 assessed as inhibition of pyocyanin production incubated for 24 hrs by optical density based analysis
[2] = Inhibition of quorum sensing system in Pseudomonas aeruginosa PAO1 assessed as inhibition of pyocyanin production at 10 uM incubated for 24 hrs by optical density based analysis relative to control
Pseudomonas aeruginosa = assay: Synergistic antibacterial activity against Pseudomonas aeruginosa PAO1 infected in Caenorhabditis elegans assessed as worm survival rate at 0.125 ug/ml incubated for 72 hrs in presence of compound 16e by bright-field microscopy relative to control; type: functional

Row | SMILES | IC50 [1] | inhibition [2] | survival at 0.125 µg/mL (Pseudomonas aeruginosa)
1 | Cc1cc(=O)c(O)c(CNCc2cn(-c3cccc(F)c3)nn2)n1C | 45.8 µM | – | –
2 | Cc1cc(=O)c(O)c(CNCc2cn(-c3ccc(C#N)cc3)nn2)n1C | > 50 µM | – | –
3 | Cc1cc(=O)c(O)c(CNCc2cn(-c3ccncc3)nn2)n1C | > 50 µM | – | –
4 | Cc1cc(=O)c(O)c(CNCc2cn(-c3ccc(N)cc3)nn2)n1C | 44.9 µM | – | –
5 | Cc1cc(=O)c(O)c(CNCc2cn(-c3ccccc3)nn2)n1C | 34.7 µM | – | –
6 | Cc1cc(=O)c(O)c(CNCc2cn(-c3ccc(N(C)C)cc3)nn2)n1C | 33.2 µM | – | –
7 | CCCCCn1cc(CNCc2c(O)c(=O)cc(C)n2C)nn1 | 35.3 µM | – | –
8 | CC(=O)c1ccc(-n2cc(CNCc3c(O)c(=O)cc(C)n3C)nn2)cc1 | 37.4 µM | – | –
9 | Cc1cc(=O)c(O)c(CNCc2cn(-c3ccccc3Br)nn2)n1C | 32.2 µM | – | –
10 | CCCCn1cc(CNCc2c(O)c(=O)cc(C)n2C)nn1 | > 50 µM | – | –
11 | COc1ccccc1-n1cc(CNCc2c(O)c(=O)cc(C)n2C)nn1 | 29.2 µM | – | –
12 | Cc1cc(=O)c(O)c(CNCc2cn(-c3ccccc3[N+](=O)[O-])nn2)n1C | > 50 µM | – | –
13 | Cc1cc(=O)c(O)c(CNCc2cn(-c3ccc(Br)cc3)nn2)n1C | 46.2 µM | – | –
14 | O=C(O)c1cn(C2CC2)c2cc(N3CCNCC3)c(F)cc2c1=O [CIPROFLOXACIN] | – | – | 35.7%
15 | COc1cccc(-n2cc(CNCc3c(O)c(=O)cc(C)n3C)nn2)c1 | 42 µM | – | –
16 | COC(=O)c1ccc(-n2cc(CNCc3c(O)c(=O)cc(C)n3C)nn2)cc1 | 45.8 µM | – | –
17 | Cc1cc(=O)c(O)c(CNCc2cn(-c3ccccn3)nn2)n1C | > 50 µM | – | –
18 | CCCCCCn1cc(CNCc2c(O)c(=O)cc(C)n2C)nn1 | 35.9 µM | – | –
19 | Cc1cc(=O)c(O)c(CNCc2cn(-c3cccc(Cl)c3)nn2)n1C | > 50 µM | – | –
20 | Cc1cc(=O)c(O)c(CNCc2cn(-c3ccc(N4CCN(C)CC4)cc3)nn2)n1C | > 50 µM | – | –
21 | Cc1cc(=O)c(O)c(CNCc2cn(-c3ccccc3C#N)nn2)n1C | > 50 µM | – | –

More lines, main results first:

Row | IC50 [1] | inhibition [2] | SMILES | survival at 0.125 µg/mL (Pseudomonas aeruginosa)
22 | 22 µM | – | CCCCCCCn1cc(CNCc2c(O)c(=O)cc(C)n2C)nn1 | –
23 | 19.4 µM | – | Cc1cc(=O)c(O)c(CNCC(=O)Nc2ccc(Oc3ccccc3)cc2)n1C | –
24 | 18.2 µM | – | Cc1cc(=O)c(O)c(CNCc2cn(-c3ccccc3F)nn2)n1C | –
25 | 8.5 µM | 44.9% | Cc1ccc(-n2cc(CNCc3c(O)c(=O)cc(C)n3C)nn2)cc1 | –
26 | 15.2 µM | – | Cc1cc(=O)c(O)c(CNCc2cn(-c3ccc(Cl)cc3)nn2)n1C | –
27 | 24.8 µM | – | CC(=O)c1ccccc1-n1cc(CNCc2c(O)c(=O)cc(C)n2C)nn1 | –
28 | 6.6 µM | 51.2% | CCCCCCCCCn1cc(CNCc2c(O)c(=O)cc(C)n2C)nn1 | –
29 | 18.4 µM | – | Cc1cc(=O)c(O)c(CNCc2cn(-c3ccccc3Cl)nn2)n1C | –
30 | 8.4 µM | 43.3% | Cc1cc(=O)c(O)cn1Cc1cn(-c2ccc(Oc3ccccc3)cc2)nn1 | –
31 | 6.1 µM | 58.3% | Cn1cc(O)c(=O)cc1CNCc1cn(-c2ccc(Oc3ccccc3)cc2)nn1 | –
32 | 21 µM | – | CCCCCCCCn1cc(CNCc2cc(=O)c(O)cn2C)nn1 | –
33 | 8.1 µM | 50.1% | Cc1cc(=O)c(O)c(CNCc2cn(-c3ccccc3OC(F)(F)F)nn2)n1C | –
34 | 4 µM | 66.7% | Cc1cc(=O)c(O)c(CNCc2cn(-c3ccc(OC(F)(F)F)cc3)nn2)n1C | –
35 | 18.9 µM | – | Cn1cc(O)c(=O)cc1CNCc1cn(-c2ccc(OC(F)(F)F)cc2)nn1 | –
36 | 9.8 µM | 49% | Cc1cc(=O)c(O)c(CNCc2cn(-c3ccccc3C(F)(F)F)nn2)n1C | –
37 | 18.2 µM | – | Cc1cc(=O)c(O)c(CNCc2cn(-c3ccc(F)cc3)nn2)n1C | –
38 | 7.7 µM | 60.1% | Cc1cc(=O)c(O)c(CNCc2cn(-c3ccc(C(F)(F)F)cc3)nn2)n1C | –
39 | 28.4 µM | – | COC(=O)c1ccccc1-n1cc(CNCc2c(O)c(=O)cc(C)n2C)nn1 | –
40 | 4.6 µM | 64% | CCCCCCCCn1cc(CNCc2c(O)c(=O)cc(C)n2C)nn1 | –
41 | 24 µM | – | Cc1cc(=O)c(O)c(CNCc2cn(-c3ccc(O)cc3)nn2)n1C | –
42 | 6.9 µM | 52% | COc1ccc(-n2cc(CNCc3c(O)c(=O)cc(C)n3C)nn2)cc1 | –
43 | 5.1 µM | 55.1% | Cc1cc(=O)c(O)c(COCc2cn(-c3ccc(Oc4ccccc4)cc3)nn2)n1C | –

From ChEMBL document CHEMBL5344424, “3-Hydroxypyridin-4(1H)-one Derivatives as pqs Quorum Sensing Inhibitors Attenuate Virulence and Reduce Antibiotic Resistance in Pseudomonas aeruginosa” (J Med Chem, 2023)
